Measured values published in patent publication US8207172B2 (Bayer Intellectual Property GmbH, priority 2004, dated 2012).
Counter-ions that a name gives are not always drawn.

Assays:
[1] = test system: A431 cells (human epidermoid carcinoma); test: In vitro tumor cell proliferation assay (Cell Titer-Glo luminescent cell viability), A431; format: cell-based; conditions: A-431, 72 h, 72 hours of drug exposure, ATP luminescence readout, read-out: IC50, anti-proliferative activity (inhibition of cell proliferation)
Procedure, shortened: (§1)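 A431 or BT474 cells were exposed 72 h at 37°C to serially diluted compounds (final 100 μM down to 64 pM, 0.1% DMSO). Viable cells were read by ATP luminescence (CellTiter-Glo) and IC50 values derived.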

[2] = test system: BT474 (human breast carcinoma); test: In vitro tumor cell proliferation assay (Cell Titer-Glo luminescent cell viability), BT474; format: cell-based; conditions: BT-474, 72 h, BT474 cells, 72 hours of drug exposure, ATP luminescence readout, read-out: IC50, anti-proliferative activity (inhibition of cell proliferation)
Procedure, shortened: as §1

Row | SMILES | IC50 [1] | IC50 [2]
1 | CN1CCN(CCn2cc3c(n2)CCc2c-3sc3ncnc(Nc4ccc5c(cnn5Cc5ccccn5)c4)c23)CC1 [Example 338, 2-[2-(4-methylpiperazin-1-yl)ethyl]-N-[1-(pyridin-2-ylmethyl)-1H-indazol-5-yl]-4,5-dihydro-2H-pyrimido[5′,4′:4,5]thieno[2,3-e]indazol-6-amine] | ≤ 50 µM | ≤ 1 µM
2 | CN1CCN(CCn2cc3c(n2)CCc2c-3sc3ncnc(Nc4ccc(Oc5cccnc5)cc4)c23)CC1 [Example 340, 2-[2-(4-methylpiperazin-1-yl)ethyl]-N-[4-(pyridin-3-yloxy)phenyl]-4,5-dihydro-2H-pyrimido[5′,4′:4,5]thieno[2,3-e]indazol-6-amine] | ≤ 50 µM | ≤ 5 µM
3 | Cc1cc(Oc2ccc(Nc3ncnc4sc5c(c34)CCc3nn(CCN4CCN(C)CC4)cc3-5)c(F)c2)ccn1 [Example 341, N-{2-fluoro-4-[(2-methylpyridin-4-yl)oxy]phenyl}-2-[2-(4-methylpiperazin-1-yl)ethyl]-4,5-dihydro-2H-pyrimido[5′,4′:4,5]thieno[2,3-e]indazol-6-amine] | ≤ 50 µM | ≤ 5 µM
4 | CN1CCN(CCn2cc3c(n2)CCc2c-3sc3ncnc(Nc4ccc(SCc5ccncc5)cc4)c23)CC1 [Example 342, 2-[2-(4-methylpiperazin-1-yl)ethyl]-N-{4-[(pyridin-4-ylmethyl)thio]phenyl}-4,5-dihydro-2H-pyrimido[5′,4′:4,5]thieno[2,3-e]indazol-6-amine] | ≤ 50 µM | ≤ 5 µM
5 | CN1CCN(CCn2cc3c(n2)CCc2c-3sc3ncnc(Nc4ccc(Oc5cccnc5)c(F)c4)c23)CC1 [Example 343, N-[3-fluoro-4-(pyridin-3-yloxy)phenyl]-2-[2-(4-methylpiperazin-1-yl)ethyl]-4,5-dihydro-2H-pyrimido[5′,4′:4,5]thieno[2,3-e]indazol-6-amine] | ≤ 50 µM | ≤ 5 µM

The remaining lines, values ahead:

Row | IC50 [1] | IC50 [2] | SMILES
6 | ≤ 5 µM | ≤ 1 µM | CN1CCN(CCn2cc3c(n2)CCc2c-3sc3ncnc(Nc4ccc(OCc5ccc(Cl)cc5)c(Cl)c4)c23)CC1 [Example 331, N-{3-chloro-4-[(4-chlorobenzyl)oxy]phenyl}-2-[2-(4-methylpiperazin-1-yl)ethyl]-4,5-dihydro-2H-pyrimido[5′,4′:4,5]thieno[2,3-e]indazol-6-amine]
7 | ≤ 5 µM | ≤ 1 µM | CN1CCN(CCn2cc3c(n2)CCc2c-3sc3ncnc(Nc4ccc(OCc5ccccc5Cl)c(Cl)c4)c23)CC1 [Example 332, N-{3-chloro-4-[(2-chlorobenzyl)oxy]phenyl}-2-[2-(4-methylpiperazin-1-yl)ethyl]-4,5-dihydro-2H-pyrimido[5′,4′:4,5]thieno[2,3-e]indazol-6-amine]
8 | ≤ 5 µM | ≤ 1 µM | CN1CCN(CCn2cc3c(n2)CCc2c-3sc3ncnc(Nc4ccc(OCc5cccc(Cl)c5)c(Cl)c4)c23)CC1 [Example 333, N-{3-chloro-4-[(3-chlorobenzyl)oxy]phenyl}-2-[2-(4-methylpiperazin-1-yl)ethyl]-4,5-dihydro-2H-pyrimido[5′,4′:4,5]thieno[2,3-e]indazol-6-amine]
9 | ≤ 5 µM | ≤ 1 µM | CN1CCN(CCn2cc3c(n2)CCc2c-3sc3ncnc(Nc4ccc(OCc5ccccc5F)c(Cl)c4)c23)CC1 [Example 334, N-{3-chloro-4-[(2-fluorobenzyl)oxy]phenyl}-2-[2-(4-methylpiperazin-1-yl)ethyl]-4,5-dihydro-2H-pyrimido[5′,4′:4,5]thieno[2,3-e]indazol-6-amine]
10 | ≤ 5 µM | ≤ 1 µM | Cc1cc(Nc2ncnc3sc4c(c23)CCc2nn(CCN3CCN(C)CC3)cc2-4)ccc1OCc1cccc(F)c1 [Example 335, N-{4-[(3-fluorobenzyl)oxy]-3-methylphenyl}-2-[2-(4-methylpiperazin-1-yl)ethyl]-4,5-dihydro-2H-pyrimido[5′,4′:4,5]thieno[2,3-e]indazol-6-amine]
11 | ≤ 5 µM | ≤ 1 µM | CN1CCN(CCn2cc3c(n2)CCc2c-3sc3ncnc(Nc4ccc(OCc5cccc(C#N)c5)c(Cl)c4)c23)CC1 [Example 336, 3-{[2-chloro-4-({2-{2-(4-methylpiperazin-1-yl)ethyl]-4,5-dihydro-2H-pyrimido[5′,4′:4,5]thieno[2,3-e]indazol-6-yl}amino)phenoxy]methyl} benzonitrile]
12 | ≤ 5 µM | ≤ 5 µM | CN1CCN(CCn2cc3c(n2)CCc2c-3sc3ncnc(Nc4cc(Cl)c(Cl)cc4F)c23)CC1 [Example 344, N-(4,5-dichloro-2-fluorophenyl)-2-[2-(4-methylpiperazin-1-yl)ethyl]-4,5-dihydro-2H-pyrimido[5′,4′:4,5]thieno[2,3-e]indazol-6-amine trifluoroacetate]
